Experimental findings from patent US20210284668A1, “GOLD (I)-PHOSPHINE 1,2,3-TRIAZOLE DERIVATIVES WITH ANTIBIOTIC PROPERTIES” (Centre National de la Recherche Scientifique, priority 2018, published 2021) are described below.

The subject of experiment [1] is S. aureus ATCC29213. The experiment is described as follows: MIC by microdilution, S. aureus ATCC29213. It counts as cell-based, Staphylococcus aureus. Conditions: S. aureus ATCC29213 (MecA negative, wild-type), Mueller-Hinton broth, in duplicate. On the procedure:
The antibacterial profile of each derivative was evaluated by the standard microdilution method for susceptibility testing on 16 different strains, following the guidelines of CLSI. The selected panel included: • S. aureus ATCC25923 (MecA negative, wild-type) • S. aureus ATCC29213 (MecA negative, wild-type) • S. aureus ATCC700699 (MecA positive, glycopeptide resistant) • S. aureus ST20131365 (MecA positive, glycopeptide resistant) • S. epidermidis ATCC14990 (MecA negative, wild-type) • S. epidermidis ATCC35984 (MecA positive) • S. epidermidis ST20140436 (MecA positive, glycopeptide resistant) • S. epidermidis ST20150446 (MecA positive, glycopeptide resistant) • E. faecalis JH2-2 (wild-type) • E. faecalis UCN41 (VanA positive, glycopeptide resistant) • E. faecalis V583 (VanB positive, glycopeptide resistant) • E. faecium ATCC19434T (wild-type) • E. faecium BM4147 (VanA positive, glycopeptide resistant) • E. faecium AUS0004 (VanB positive, glycopeptide resistant) • E. coli ATCC25922 (wild-type) • Clostridium difficile ATCC9689 (wild-type)
Both series issued from the SAR study were evaluated for their antibacterial activity on a panel of characterized strains obtained from the French National Reference Centers for Staphylococci (Lyon, Pr. Fréderique Laurent) and for Enterococci (Caen, Pr. Vincent Cattoir), respectively. As shown in the following tables, both series contain very active compounds on multi-resistant Gram-positive bacteria (Minimal Inhibitory Concentrations lower than comparator antibiotic ampicillin). Furthermore, a very important antibacterial effect has been shown too on a strain of Clostridium difficile, a Gram-positive, spore-forming, bacillus responsible for post-antibiotic diarrhoae.
The antibacterial activity of test compounds was evaluated on a selected panel of Gram-positive (4 Staphylococcus aureus, 4 Staphylococcus epidermidis, 3 Enterococcus faecalis, 3 Enterococcus faecium, 1 Clostridium difficile) and Gram-negative strains (1 Escherichia coli, 1 Klebsiella pneumoniae, 1 Pseudomonas aeruginosa, 1 Acinetacter baumannii) with known features of antibiotic resistance (from wild-type susceptibility to multi-drug resistance). The Minimal Inhibitory Concentration (MIC) of test compounds was determined in duplicate by the microdilution method in 96-well microplates with a final volume of 100 μL per well and Mueller-Hinton broth as the growth medium, as recommended by the CLSI (Clinical and Laboratory Standards Institute, document Mo7-A10, USA).
Background: Dilution methods test growth across graded concentrations, often in twofold steps.

Experiment [2] relates to S. aureus ST20131365. The experiment is described as follows: MIC by microdilution, S. aureus ST20131365. Format: cell-based, Staphylococcus aureus. Conditions: S. aureus ST20131365 (MecA positive, glycopeptide resistant), in duplicate. Put shortly: (§1)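 Broth microdilution per CLSI (M07-A10) in Mueller-Hinton broth, run in duplicate; MIC recorded as minimal inhibitory concentration. Panel spans wild-type to multidrug-resistant strains, e.g. S. aureus ATCC700699 (MecA+, glycopeptide resistant), S. epidermidis ATCC35984 (MecA+), E. coli ATCC25922 (wild-type).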

The subject of experiment [3] is S. epidermidis ATCC35984. Description: MIC by microdilution, S. epidermidis ATCC35984. Format: cell-based, Staphylococcus epidermidis. Conditions: S. epidermidis ATCC35984 (MecA positive), in duplicate. Put shortly:
as §1

Experiment [4] has as its system S. epidermidis ST20140436. The experiment is described as follows: MIC by microdilution, S. epidermidis ST20140436. Format: cell-based, Staphylococcus epidermidis. Conditions: S. epidermidis ST20140436 (MecA positive, glycopeptide resistant), in duplicate. Put shortly: as §1
For experiment [5], the system named is S. epidermidis ST20150446. Description: MIC by microdilution, S. epidermidis ST20150446. It counts as cell-based, Staphylococcus epidermidis. Conditions: S. epidermidis ST20150446 (MecA positive, glycopeptide resistant), in duplicate. The gist of the method:
as §1

The subject of experiment [6] is E. faecalis V583. The experiment is described as follows: MIC by microdilution, E. faecalis V583. It counts as cell-based, Enterococcus faecalis. Conditions: E. faecalis V583 (VanB positive, glycopeptide resistant), in duplicate. Put shortly: as §1
Experiment [7] relates to E. faecium ATCC19434T. Description: MIC by microdilution, E. faecium ATCC19434T. It counts as cell-based, Enterococcus faecium. The arrangement: unit not given here. Conditions: E. faecium ATCC19434T (wild-type), in duplicate. Put shortly: as §1
The subject of experiment [8] is E. faecium BM4147. The experiment is described as follows: MIC by microdilution, E. faecium BM4147. It counts as cell-based, Enterococcus faecium. The arrangement: unit not given here. Conditions: E. faecium BM4147 (VanA positive, glycopeptide resistant), in duplicate. Put shortly:
as §1

The test system of experiment [9] is E. faecium AUS0004. Description: MIC by microdilution, E. faecium AUS0004. It counts as cell-based, Enterococcus faecium. Conditions: E. faecium AUS0004 (VanB positive, glycopeptide resistant), in duplicate. The gist of the method: as §1
In experiment [10] the test system is E. coli ATCC25922. The experiment is described as follows: MIC by microdilution, E. coli ATCC25922. It counts as cell-based, Escherichia coli. Conditions: E. coli ATCC25922 (wild-type), in duplicate. The gist of the method: as §1
Experiment [11] deals with Clostridium difficile ATCC700057. Description: MIC by microdilution, Clostridium difficile. Conditions: strain ATCC70057 [sic] (Tables 1-2) / ATCC700057 (Tables 3-10), in duplicate. It counts as cell-based.
In experiment [12] the test system is S. aureus ATCC25923. Description: MIC by microdilution, S. aureus ATCC25923. It counts as cell-based, Staphylococcus aureus. Conditions: S. aureus ATCC25923 (MecA negative, wild-type), Mueller-Hinton broth, in duplicate. The gist of the method:
as §1

Experiment [13] relates to S. aureus ATCC700699. The experiment is described as follows: MIC by microdilution, S. aureus ATCC700699. It counts as cell-based, Staphylococcus aureus. Conditions: S. aureus ATCC700699 (MecA positive, glycopeptide resistant), in duplicate. The arrangement: unit not given here. The gist of the method: as §1
In experiment [14] the test system is S. epidermidis ATCC14990. The experiment is described as follows: MIC by microdilution, S. epidermidis ATCC14990. Format: cell-based, Staphylococcus epidermidis. Conditions: S. epidermidis ATCC14990 (MecA negative, wild-type), in duplicate. The gist of the method: as §1
In experiment [15] the test system is E. faecalis JH2-2. The experiment is described as follows: MIC by microdilution, E. faecalis JH2-2. Format: cell-based, Enterococcus faecalis. Conditions: E. faecalis JH2-2 (wild-type), in duplicate. Further details: unit not given here. Put shortly: as §1
Experiment [16] concerns E. faecalis UCN41. Description: MIC by microdilution, E. faecalis UCN41. It counts as cell-based, Enterococcus faecalis. The arrangement: unit not given here. Conditions: E. faecalis UCN41 (VanA positive, glycopeptide resistant), in duplicate. The gist of the method: as §1
Experiment [17] deals with panel of Gram-positive and Gram-negative strains. The experiment is described as follows: Antibacterial profile on the selected panel of strains. Format: cell-based. Conditions: summary of Tables 1-12. The gist of the method:
as §1

Values joined by “and” are separate entries in the source; they are usually repeats but may differ in a detail not shown here. Identical values can stand only once. Where only a bound is given, the exact number is not on record here.

`CC1(C)S[C@@H]2[C@H](NC(=O)[C@H](N)c3ccccc3)C(=O)N2[C@H]1C(=O)O` [Ampi, ampicillin, reference compound]: the “Minimal Inhibitory Concentration (MIC)” value in experiment [1] was 0.5; in experiment [2], 4; in experiment [3] it was more than 8; in experiment [4], 4 and 8; in [5], 8 and 4; in experiment [6] it was 0.5. The “Minimal Inhibitory Concentration (MIC)” value was 0.5 in [7]; 4 and 8 in [8]; more than 8 in experiment [9]; 2 in experiment [10]; 0.5 and 0.5-1 and 0.25 in experiment [11].
Regarding `CC[P+](CC)(CC)[Au-][c]1nn[nH]c1-c1ccc(C(=O)O)cc1` [TMB14], the “Minimal Inhibitory Concentration (MIC)” value in experiment [12] was 0.125; in experiment [1] it was 0.125; in [13] it was 0.125; in [2] it was 0.125 and 0.25; in experiment [14], not above 0.06; in experiment [3], not above 0.06. The “Minimal Inhibitory Concentration (MIC)” value was 0.5 in experiment [15]; 0.5 and 1 in [16]; 1 in [6]; 0.5 in [7]; 0.5 in [8]; 0.5 in [9]. The “Minimal Inhibitory Concentration (MIC)” value is on record as more than 8 in [10] and 0.125 in [11]. In addition, in [17], the “antimicrobial / antibacterial activity (in words)” value is reported as “have antimicrobial activity”.
For `CC[P+](CC)(CC)[Au-][c]1nn[nH]c1-c1ccc(C(=O)NC(C(=O)O)c2ccccc2)cc1` (stereo not drawn) [TMB23], the “Minimal Inhibitory Concentration (MIC)” value was not above 0.06 in [12]; 0.125 in experiment [1]; 0.125 in [13]; 0.125 in experiment [2]; not above 0.06 in experiment [14]; not above 0.06 in experiment [5]. Moreover, the “Minimal Inhibitory Concentration (MIC)” value was 0.25 in experiment [15]; 0.125 in experiment [16]; 0.125 and 0.25 in experiment [6]; 0.25 in [7]; 0.25 and 0.5 in experiment [8]; 0.25 in experiment [9]. The results for the “Minimal Inhibitory Concentration (MIC)” value in [10] and in experiment [11] were more than 8 and not above 0.06, respectively. Further, in experiment [17], the “antimicrobial / antibacterial activity (in words)” value is reported as “have antimicrobial activity”.
In the case of `CC[P+](CC)(CC)[Au-][c]1nn[nH]c1C1CCC(C(=O)O)CC1` (stereo not drawn) [TMB25], the “Minimal Inhibitory Concentration (MIC)” value in experiment [1] is 0.25; in experiment [13], 0.25; in experiment [14], not above 0.06; in [3], not above 0.06; in [5], 0.125 and 0.25; in experiment [15], 0.125. Also, the “Minimal Inhibitory Concentration (MIC)” value in experiment [16] is recorded as 0.125; in experiment [6] it was 0.125; in [7], 0.125; in experiment [8], 0.125; in experiment [9], 0.125; in experiment [10], more than 8. In addition, the “Minimal Inhibitory Concentration (MIC)” value in experiment [11] was not above 0.06. Further, in [17], the “antimicrobial / antibacterial activity (in words)” value is “have antimicrobial activity”.
Consider `CC[P+](CC)(CC)[Au-][c]1nn[nH]c1COC(=O)N[C@H](CC(=O)O)C(=O)O` [TMB29], for which the “Minimal Inhibitory Concentration (MIC)” value in [12] was 0.125; in [1], 0.125; in experiment [13], 0.125; in experiment [2], 0.125; in [14] it was not above 0.06; in [3], not above 0.06. For the same compound, the “Minimal Inhibitory Concentration (MIC)” value was not above 0.06 in [4]; 0.25 in experiment [15]; 0.25 in [16]; 0.25 in experiment [6]; 0.25 in experiment [7]; 0.25 and 0.5 in experiment [8]. Further, the “Minimal Inhibitory Concentration (MIC)” value is listed as 0.5 in experiment [9], more than 8 in [10] and not above 0.06 in experiment [11]. Moreover, in experiment [17], the “antimicrobial / antibacterial activity (in words)” value is on record as “have antimicrobial activity”.
Turning to `CC[P+](CC)(CC)[Au-][c]1nn[nH]c1-c1cn[nH]c1` [TMB31], the “Minimal Inhibitory Concentration (MIC)” value is listed as not above 0.06 in experiment [12]; not above 0.06 in experiment [1]; 0.125 in experiment [13]; not above 0.06 in experiment [14]; not above 0.06 in experiment [3]; not above 0.06 in [4]. In addition, the “Minimal Inhibitory Concentration (MIC)” value in experiment [5] is listed as not above 0.06; in experiment [15] it was 0.25; in experiment [16], 0.25; in experiment [6], 0.25; in experiment [7], 0.25; in experiment [8] it was 0.25. Besides, the “Minimal Inhibitory Concentration (MIC)” value was 0.25 in [9], more than 8 in experiment [10] and not above 0.06 in experiment [11]. Also, the “antimicrobial / antibacterial activity (in words)” value in [17] was “have antimicrobial activity”.
